Activity calls are given as the source filed them.
Assays:
[1] = target: T1, Rac GTPase-activating protein 1 (Homo sapiens, UniProt Q9H0H5); assay: MgcRacGAP GTPase-activating activity inhibitors, confirmation, biochemical, ADP Hunter fluorescence, primary and confirmatory (AID 624330); type: functional
T1 sequence (Q9H0H5 whole entry): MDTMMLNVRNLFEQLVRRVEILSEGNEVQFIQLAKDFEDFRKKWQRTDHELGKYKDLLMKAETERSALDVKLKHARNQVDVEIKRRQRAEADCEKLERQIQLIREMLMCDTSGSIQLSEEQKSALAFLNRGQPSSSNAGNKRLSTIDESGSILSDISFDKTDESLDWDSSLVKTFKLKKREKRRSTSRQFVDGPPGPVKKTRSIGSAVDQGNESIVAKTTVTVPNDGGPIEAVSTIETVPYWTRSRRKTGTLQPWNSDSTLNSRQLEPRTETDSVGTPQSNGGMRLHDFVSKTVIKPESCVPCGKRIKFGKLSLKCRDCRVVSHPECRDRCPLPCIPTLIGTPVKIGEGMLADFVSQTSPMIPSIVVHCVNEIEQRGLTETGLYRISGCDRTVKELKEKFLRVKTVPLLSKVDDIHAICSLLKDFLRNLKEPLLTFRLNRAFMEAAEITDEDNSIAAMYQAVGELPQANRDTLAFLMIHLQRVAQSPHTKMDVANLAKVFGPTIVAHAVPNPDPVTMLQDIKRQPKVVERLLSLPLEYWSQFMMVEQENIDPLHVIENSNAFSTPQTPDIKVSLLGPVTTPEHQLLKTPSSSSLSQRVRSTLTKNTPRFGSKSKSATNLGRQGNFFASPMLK

[2] = target: T2, Heat shock factor protein 1 (Mus musculus, UniProt P38532); assay: HSF1 potentiators in luciferase reporter cells, confirmation, cell-based, NIH3T3, luminescence, dose retest (AID 435004); type: functional;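 further: stress induced by proteasome inhibitor MG132 added 30 min after compound; luciferase reporter driven by HSF1 response element in NIH3T3 cells; actives raise luminescence as potentiators of the MG132 stress response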
T2 sequence (P38532 whole entry): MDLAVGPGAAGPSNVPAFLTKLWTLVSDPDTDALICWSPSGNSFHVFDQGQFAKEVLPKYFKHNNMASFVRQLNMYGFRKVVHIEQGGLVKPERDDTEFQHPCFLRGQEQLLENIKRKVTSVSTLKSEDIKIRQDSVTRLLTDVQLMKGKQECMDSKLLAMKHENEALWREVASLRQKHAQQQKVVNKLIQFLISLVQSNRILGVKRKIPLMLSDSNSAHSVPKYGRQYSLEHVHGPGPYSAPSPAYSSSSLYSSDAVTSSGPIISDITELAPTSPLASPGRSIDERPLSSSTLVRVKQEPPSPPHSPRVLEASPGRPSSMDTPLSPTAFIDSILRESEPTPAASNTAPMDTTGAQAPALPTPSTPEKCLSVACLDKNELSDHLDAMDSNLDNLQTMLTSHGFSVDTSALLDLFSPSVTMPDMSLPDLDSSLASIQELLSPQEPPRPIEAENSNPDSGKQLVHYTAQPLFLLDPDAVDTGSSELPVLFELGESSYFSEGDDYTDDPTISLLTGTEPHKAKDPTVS

Cytochrome P450 2C9 = Cytochrome P450 2C9 (Homo sapiens, UniProt P11712)
[3] = Luminescence Cell-Based Dose Confirmation HTS to Identify Activators of 5'UTR Stem-Loop Driven Alpha-Synuclein mRNA Translation in H4 Neuroglioblastoma Cells. [Related pubchem assays: 1829 (Project Summary), 1814 (Primary HTS)]; type: functional
[4] = Luminescence Cell-Based Dose Response HTS to Identify Activators of Luciferase Translation or Activity in H4 […] Cells. [Related pubchem assays: 1829 (Project Summary), 1814 (Primary HTS)]; type: functional
H4 = assay: Luminescence Cell-Based Dose Response HTS to Identify Activators of 5'UTR Stem-Loop Driven Prion Protein mRNA Translation in H4 Neuroglioblastoma Cells. [Related pubchem assays: 1829 (Project Summary), 1814 (Primary HTS)]; type: functional; conditions: Homo sapiens
Cytochrome P450 1A2 = target: T3, Cytochrome P450 1A2 (Homo sapiens, UniProt P05177);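 further: PubChem cytochrome P450 panel assay, CYP1A2 panel member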
T3 sequence (P05177 whole entry): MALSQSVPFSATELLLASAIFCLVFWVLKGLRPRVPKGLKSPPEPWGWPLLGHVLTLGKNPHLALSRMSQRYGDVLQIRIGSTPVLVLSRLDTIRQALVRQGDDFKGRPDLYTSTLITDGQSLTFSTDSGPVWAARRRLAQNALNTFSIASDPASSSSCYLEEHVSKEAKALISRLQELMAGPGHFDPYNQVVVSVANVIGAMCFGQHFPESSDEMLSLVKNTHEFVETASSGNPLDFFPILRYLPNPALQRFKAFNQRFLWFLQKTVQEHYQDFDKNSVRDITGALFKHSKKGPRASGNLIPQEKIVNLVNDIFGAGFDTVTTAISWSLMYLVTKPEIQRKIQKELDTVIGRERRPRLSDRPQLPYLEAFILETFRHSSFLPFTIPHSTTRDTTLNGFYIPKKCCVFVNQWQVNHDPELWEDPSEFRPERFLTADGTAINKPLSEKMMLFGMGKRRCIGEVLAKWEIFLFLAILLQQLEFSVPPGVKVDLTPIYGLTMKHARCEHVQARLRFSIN

Cytochrome P450 3A4 = Cytochrome P450 3A4 (Homo sapiens, UniProt P08684);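 further: CYP3A4 tested as one member of a cytochrome P450 panel screen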
Cytochrome P450 2C19 = Cytochrome P450 2C19 (Homo sapiens, UniProt P33261); assay: Cytochrome panel assay with activity outcomes. Panel member name: p450-cyp2c19 Compounds with AC50 equal or less than 10 uM are considered active; type: functional; conditions: read-out: AC50
[5] = inhibitors of intracellular T. cruzi replication, confirmation, NIH3T3 host cells, beta-gal luminescence (AID 2044); type: functional, cell-based;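 further: intracellular parasites grown in NIH/3T3 mouse fibroblasts as host cells; luminescent beta-galactosidase reporter signal from transgenic T. cruzi replicating inside host cells; inhibitors lower the luminescence signal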
[6] = cytotoxicity toward NIH3T3 fibroblasts, dose response, counter-screen, cell-based, ATP luminescence, mouse fibroblasts (AID 2010); type: functional; conditions: NIH3T3;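 further: cells exposed to compound for about 90 hours before reading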
[7] = Luminescence Cell-Based Dose Retest to Confirm Inhibitors of Cancer Stem Cells. [Related pubchem assays (depositor defined):AID2717, AID2721]; type: functional, Homo sapiens; conditions: Homo sapiens

Chain of Cytochrome P450 2C19 (P33261 whole entry): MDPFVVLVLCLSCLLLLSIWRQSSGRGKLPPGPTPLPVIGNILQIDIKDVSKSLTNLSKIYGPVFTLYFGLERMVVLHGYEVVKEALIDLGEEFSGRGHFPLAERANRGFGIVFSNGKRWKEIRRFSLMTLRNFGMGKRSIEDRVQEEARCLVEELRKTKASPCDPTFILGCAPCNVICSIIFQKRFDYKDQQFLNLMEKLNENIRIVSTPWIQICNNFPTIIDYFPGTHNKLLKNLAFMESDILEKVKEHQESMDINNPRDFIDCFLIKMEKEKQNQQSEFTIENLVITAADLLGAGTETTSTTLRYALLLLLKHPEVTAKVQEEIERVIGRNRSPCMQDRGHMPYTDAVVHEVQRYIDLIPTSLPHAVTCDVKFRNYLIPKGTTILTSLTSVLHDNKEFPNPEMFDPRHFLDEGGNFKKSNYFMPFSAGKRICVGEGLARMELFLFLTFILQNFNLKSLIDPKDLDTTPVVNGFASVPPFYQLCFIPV
Chain of Cytochrome P450 2C9 (P11712 whole entry): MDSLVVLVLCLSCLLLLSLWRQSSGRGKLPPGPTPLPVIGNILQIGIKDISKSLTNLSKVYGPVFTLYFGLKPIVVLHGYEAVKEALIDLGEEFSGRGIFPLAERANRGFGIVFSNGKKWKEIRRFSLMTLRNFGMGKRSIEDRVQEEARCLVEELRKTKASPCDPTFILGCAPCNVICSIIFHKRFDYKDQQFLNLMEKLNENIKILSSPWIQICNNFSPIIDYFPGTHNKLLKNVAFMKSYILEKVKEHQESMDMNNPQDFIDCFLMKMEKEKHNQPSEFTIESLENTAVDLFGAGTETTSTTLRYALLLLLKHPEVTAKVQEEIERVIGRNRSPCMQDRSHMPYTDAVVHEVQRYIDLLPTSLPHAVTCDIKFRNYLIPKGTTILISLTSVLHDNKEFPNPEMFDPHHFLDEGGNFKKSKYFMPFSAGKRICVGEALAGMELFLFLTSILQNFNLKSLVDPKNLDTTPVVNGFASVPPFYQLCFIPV
Chain of Cytochrome P450 3A4 (P08684 whole entry): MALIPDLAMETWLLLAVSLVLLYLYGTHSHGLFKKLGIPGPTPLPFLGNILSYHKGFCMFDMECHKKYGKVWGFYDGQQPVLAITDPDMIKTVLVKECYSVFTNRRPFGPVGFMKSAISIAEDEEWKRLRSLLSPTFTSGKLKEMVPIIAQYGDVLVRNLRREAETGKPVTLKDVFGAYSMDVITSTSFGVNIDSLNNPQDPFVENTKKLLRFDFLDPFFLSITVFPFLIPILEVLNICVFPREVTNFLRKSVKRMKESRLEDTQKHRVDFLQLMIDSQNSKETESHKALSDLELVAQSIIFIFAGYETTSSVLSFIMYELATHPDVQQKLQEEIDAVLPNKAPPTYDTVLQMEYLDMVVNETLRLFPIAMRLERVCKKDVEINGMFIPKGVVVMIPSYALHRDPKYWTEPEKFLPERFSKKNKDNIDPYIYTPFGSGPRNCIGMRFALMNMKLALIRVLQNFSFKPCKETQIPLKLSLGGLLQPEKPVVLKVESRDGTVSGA

CC(C)COc1ccc(N)cc1OCC(C)C
IC50 [1]: 55.3 µM (active)

COc1ccc(C)cc1-n1c(SCC(=O)Nc2cccc(C(=O)O)c2)nc2ccccc2c1=O
EC50 [2]: > 260 µM (inactive)

COc1cc(Cl)c(C)cc1NC(=O)CNC(=O)Cn1cnc2ccccc2c1=O
AC50 (Cytochrome P450 2C9): 10 µM (inconclusive)

Cc1cc2oc(C(=O)Nc3c(C)n(C)n(-c4ccccc4)c3=O)c(C)c2cc1C
EC50 [3]: 46.1 µM (active) | EC50 [4]: > 120 µM (not active) | EC50 (H4): > 120 µM (not active)

COc1ccc(OC)c(-c2csc(NC(=O)C3=NN(c4ccccc4)C(=O)CC3)n2)c1
EC50 [3]: > 120 µM (not active) | EC50 [4]: > 120 µM (not active) | EC50 (H4): > 120 µM (not active)

CCN1CC(CN(C)Cc2nc(COc3ccccc3)no2)CC1=O (configuration not stated)
EC50 [2]: > 260 µM (inactive)

Cc1c(NC(=O)CN2CC(C)OC(C)C2)c(=O)n(-c2ccccc2)n1C (configuration not stated)
IC50 [1]: 83.1 µM (active)

Cc1ccccc1N(CC(=O)NC1CCCC1)C(=O)c1csnn1
EC50 [3]: > 120 µM (not active) | EC50 [4]: > 120 µM (not active) | EC50 (H4): > 120 µM (not active)

Cc1ccc2c(c1)NCC(C(=O)NC1CCCCC1)O2 (configuration not stated)
AC50 (Cytochrome P450 1A2): 11.2 µM (inconclusive) | AC50 (Cytochrome P450 3A4): 31.6 µM (inconclusive) | AC50 (Cytochrome P450 2C9): 39.8 µM (inconclusive)

COn1c(SC(C)C)nc2ccccc2c1=O
AC50 (Cytochrome P450 2C9): 17.8 µM (inconclusive)

CCN(CC)CCN1C(=O)C(O)=C(C(=O)c2ccc(OC(C)C)cc2)C1c1cccs1 (configuration not stated)
EC50 [3]: 15.7 µM (active) | EC50 [4]: 20.1 µM (active) | EC50 (H4): 35 µM (active)

c1cncc(-c2nnc3n2C2(CCCCC2)Cc2ccccc2-3)c1
AC50 (Cytochrome P450 2C19): 44.7 µM (inconclusive) | AC50 (Cytochrome P450 1A2): 39.8 µM (inconclusive) | AC50 (Cytochrome P450 2C9): 31.6 µM (inconclusive)

[O-][n+]1onc2c1CCc1nnccc1-2
EC50 [3]: 11.4 µM (active) | EC50 [4]: 8.72 µM (active) | EC50 (H4): > 120 µM (not active)

CCc1ccccc1NS(=O)(=O)c1cc2c3c(c1)CCN3C(=O)CC2
EC50 [2]: > 260 µM (inactive)

Cc1nc2c(ccc3nc(NC(=O)c4ccc(S(=O)(=O)N(C)C)cc4)sc32)s1
AC50 (Cytochrome P450 2C19): 7.94 µM (inconclusive) | AC50 (Cytochrome P450 1A2): 3.16 µM (inconclusive) | AC50 (Cytochrome P450 3A4): 3.55 µM (inconclusive) | AC50 (Cytochrome P450 2C9): 0.794 µM (inconclusive)

N#Cc1c(NC(=O)CSc2nnc(-c3ccccc3)o2)sc2c1CCCC2
EC50 [2]: > 260 µM (inactive)

N#CCCn1c(=O)c(-c2cc(F)cc(F)c2)nc2cnc(Oc3cccc(Cl)c3)nc21
AC50 (Cytochrome P450 3A4): 10 µM (inconclusive) | AC50 (Cytochrome P450 2C9): 7.94 µM (inconclusive)

COc1ccc(SCC2CN(C)CCC2c2ccc(F)cc2)cc1 (configuration not stated)
EC50 [2]: > 260 µM (inactive)

O=C(Nc1cnn(C23CC4CC(CC(C4)C2)C3)c1)c1cc(-c2ccccc2)on1
EC50 [5]: 1.55 µM (active) | EC50 [6]: > 60 µM (not active) | AC50 [7]: 296 nM (active)

CCOC(=O)c1cc2c(=O)n3ccccc3nc2n(CCOC)/c1=N\C(=O)C(C)(C)C
AC50 (Cytochrome P450 2C19): 20 µM (inconclusive) | AC50 (Cytochrome P450 3A4): 31.6 µM (inconclusive) | AC50 (Cytochrome P450 2C9): 17.8 µM (inconclusive)

Reference: ChEMBL document CHEMBL1201862, “PubChem BioAssay data set” (2004)
